Reference: ChEMBL document CHEMBL1145065, “Thalidomide metabolites and analogues. 3. Synthesis and antiangiogenic activity of the teratogenic and TNFalpha-modulatory thalidomide analogue 2-(2,6-dioxopiperidine-3-yl)phthalimidine” (2003)

Key:
[1] = species: Rattus norvegicus; assay: Inhibition of angiogenesis (new microvessel growth) in rat aortic ring model at 200 uM in Endothelial basal medium (EBM) and Dimethylsulfoxide (DMSO); format: functional; conditions: Aorta
[2] = species: Rattus norvegicus; assay: Inhibition of angiogenesis (new microvessel growth) in rat aortic ring model at 100 uM in Endothelial basal medium (EBM) and Dimethylsulfoxide (DMSO); format: functional; conditions: Aorta

O=C1CCC(N2Cc3ccccc3C2=O)C(=O)N1 (configuration not stated)
inhibition at 200 µM [1]: 30% | inhibition at 100 µM [2]: 30%
